According to paper PMC9737972, “Dual LSD1 and HDAC6 Inhibition Induces Doxorubicin Sensitivity in Acute Myeloid Leukemia Cells” (Cancers, 2022):

Columns and labels:
[1] = tested on: Jurkat; assay: Cell Titer-Glo cell viability, Jurkat; format: cell-based; details: Homo sapiens, 120 h, ± standard deviation, three biological repeats, read-out: IC50 cell viability Jurkat
[2] = target: T1, Human recombinant C-ter-His-FLAG-HDAC1 (Homo sapiens, UniProt Q13547); assay: HDAC-Glo I/II enzyme assay, HDAC1; format: biochemical; details: ± standard error, three independent measurements
T1 construct: His (C); FLAG (C); purchased BPS Bioscience 50051
T1 sequence (Q13547 whole entry): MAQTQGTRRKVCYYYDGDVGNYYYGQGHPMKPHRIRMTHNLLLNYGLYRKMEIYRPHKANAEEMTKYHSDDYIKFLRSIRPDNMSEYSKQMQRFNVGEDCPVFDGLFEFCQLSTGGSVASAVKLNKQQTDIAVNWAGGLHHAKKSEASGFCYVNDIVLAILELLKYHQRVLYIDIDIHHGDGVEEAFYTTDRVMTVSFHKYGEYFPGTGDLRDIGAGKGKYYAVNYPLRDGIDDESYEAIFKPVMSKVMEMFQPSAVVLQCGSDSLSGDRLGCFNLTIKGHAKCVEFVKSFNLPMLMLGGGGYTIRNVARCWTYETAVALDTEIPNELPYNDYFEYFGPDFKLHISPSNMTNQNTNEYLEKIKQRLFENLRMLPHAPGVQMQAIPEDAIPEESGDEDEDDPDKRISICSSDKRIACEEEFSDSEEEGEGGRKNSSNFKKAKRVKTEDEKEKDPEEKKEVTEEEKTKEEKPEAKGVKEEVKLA

[3] = tested on: MOLM-13; assay: Cell Titer-Glo cell viability, MOLM-13; format: cell-based; details: Homo sapiens, MOLM-13; 120 h, ± standard deviation, three biological repeats; read-out: IC50 cell viability MOLM-13
[4] = target: T2, HDAC6 (Homo sapiens, UniProt Q9UBN7); assay: Cellular thermal shift assay (CETSA), HDAC6; format: cell-based; details: THP-1 cells, 1 h; 4 μM (methods, Figure 2), Figure S14 legend 500 nM
T2 construct: endogenous in cells; host or cells: THP-1
T2 sequence (Q9UBN7 1-1215): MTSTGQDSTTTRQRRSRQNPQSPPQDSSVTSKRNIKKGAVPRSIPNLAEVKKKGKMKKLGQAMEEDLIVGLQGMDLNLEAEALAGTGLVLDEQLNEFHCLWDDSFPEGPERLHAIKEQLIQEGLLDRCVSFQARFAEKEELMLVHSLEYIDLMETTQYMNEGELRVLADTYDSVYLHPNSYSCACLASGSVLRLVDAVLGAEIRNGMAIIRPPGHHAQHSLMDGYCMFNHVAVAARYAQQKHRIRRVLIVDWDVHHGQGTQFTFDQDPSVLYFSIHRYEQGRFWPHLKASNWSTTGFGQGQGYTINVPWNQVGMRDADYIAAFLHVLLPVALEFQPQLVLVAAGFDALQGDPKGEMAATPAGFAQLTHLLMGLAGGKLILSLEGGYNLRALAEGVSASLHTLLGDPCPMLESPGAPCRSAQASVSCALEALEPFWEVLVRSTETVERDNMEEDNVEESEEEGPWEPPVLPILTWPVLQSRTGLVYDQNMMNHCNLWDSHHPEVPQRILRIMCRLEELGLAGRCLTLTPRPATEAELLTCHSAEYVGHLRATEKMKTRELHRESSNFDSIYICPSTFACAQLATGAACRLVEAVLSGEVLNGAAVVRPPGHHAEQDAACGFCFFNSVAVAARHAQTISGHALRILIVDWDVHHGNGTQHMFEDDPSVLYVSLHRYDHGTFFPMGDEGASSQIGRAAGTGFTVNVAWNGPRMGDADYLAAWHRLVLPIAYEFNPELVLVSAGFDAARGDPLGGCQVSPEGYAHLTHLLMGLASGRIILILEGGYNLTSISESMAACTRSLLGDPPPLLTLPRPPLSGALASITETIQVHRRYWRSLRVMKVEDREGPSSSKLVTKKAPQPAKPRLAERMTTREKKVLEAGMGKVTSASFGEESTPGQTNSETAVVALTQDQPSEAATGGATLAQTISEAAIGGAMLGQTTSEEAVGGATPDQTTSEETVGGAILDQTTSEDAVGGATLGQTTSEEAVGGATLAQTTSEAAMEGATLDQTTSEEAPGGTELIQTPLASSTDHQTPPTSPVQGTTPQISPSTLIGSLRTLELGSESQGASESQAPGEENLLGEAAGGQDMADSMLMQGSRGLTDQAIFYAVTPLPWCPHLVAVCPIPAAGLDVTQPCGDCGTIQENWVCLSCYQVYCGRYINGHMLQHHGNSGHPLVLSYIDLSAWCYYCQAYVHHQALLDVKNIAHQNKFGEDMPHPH
Experimental: THP-1 cells, 1 × 10^7 cells at a density of 1 × 10^6 cells/mL, were treated with 4 μM of test compounds (1 h, 37 °C, 5% CO2). Cells were centrifuged, and the pellet was resuspended with 1 × Phosphate Buffer Saline (Gibco, Grand Island, NY, USA, #10010023) containing 1 × Protease Inhibitor Cocktail (Cell Signaling Technology, Beverly, MA, USA, #5871) and 1 mM phenylmethylsulfonyl fluoride (PMSF, Sigma Aldrich, St. Louis, MO, USA, #10837091001). The suspension volume was divided equally and heated for 3 min at 43–64 °C in a T100 Thermal Cycler (Bio-rad, Hercules, CA, USA). For protein extraction, cells were snap-frozen using liquid nitrogen, thawed twice (25 °C, 1 min), then centrifuged (20,000× g, 15 min, 4 °C). Following centrifugation, protein containing supernatants were denatured at 70 °C for 10 min and loaded on SDS-PAGE gels (Bio-Rad, Hercules, CA, USA, 161-0317). After electrophoresis (100 V and 60 min), proteins were transferred onto PVDF membrane (Bio-Rad #1620177) at 200 mA for 180 min and immunoblotted with primary antibodies (1:10,000 dilution for anti-LSD1 Antibody ab129195 [EPR6825], 1:1000 dilution for Anti-HDAC6 Antibody CST 7558, 1:1000 dilution for Anti-HDAC1 Antibody ab53091, 1:1000 dilution for Anti-HDAC8 Antibody ab187139, 1:5000 dilution for Anti-beta Actin Antibody ab8227) overnight at 4 °C. The next day, membranes were incubated with HRP-conjugated secondary antibodies (1:5000 dilution for Abcam, Cambridge, UK, ab205718) for 1 h at room temperature. The signal was detected with BIORAD Chemi-Doc XRS+ System and by using Immobilon Forte Western HRP Substrate (WBLUF0500).

[5] = tested on: THP-1; assay: Cell Titer-Glo cell viability, THP-1; format: cell-based; details: Homo sapiens, THP-1; 120 h, ± standard deviation, three biological repeats; read-out: IC50 cell viability THP-1
[6] = tested on: MOLM-13; assay: Combination treatment with doxorubicin, MOLM-13 cell viability; format: cell-based; details: iDual 0.5 μM, iHDAC6 0.5 μM, GSK2879552 1.25 μM, ricolinostat […], 72 h then + doxorubicin 2 nM 48 h

SMILES | IC50 [1] [µM] | IC50 [2] [µM] | IC50 [3] [µM] | thermal stabilization of HDAC6 (CETSA) [4] | IC50 [5] [µM] | cell viability after priming with compound and co-treatment with doxorubicin 2 nM [6]
O=C(NO)c1ccc(CN2CCC(CN[C@@H]3C[C@H]3c3ccccc3)CC2)cc1 (relative stereo) [iDual] | 15.5 ± 1.4 | 5.31 ± 0.25 | 1.3 ± 0.4 | increased thermal stability | 16.3 ± 5.4 | greatest decrease
O=C(NO)c1ccc(CN2CCC(CNC3(c4ccccc4)CC3)CC2)cc1 [iHDAC6] | 10.7 ± 0.8 | 7.57 ± 0.29 | 6.7 ± 1.6 | stabilized HDAC6 only | 9.7 ± 2.4 | relatively ineffective
